Patent US11149018B2, “Substituted N-arylethyl-2-aminoquinoline-4-carboxamides and use thereof” (Bayer Aktiengesellschaft, priority 2017, dated 2021)

Each molecule was assayed against FP receptor (Homo sapiens (Human), UniProt P43088) (assay: In vitro test of inhibition of human FP receptor activity (PGF2α-induced calcium flux in FP-expressing CHEM1 cells)). Details: PGF2α 2 nM, some mean values of multiple determinations.
Type: cell-based
Method in brief: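 FP antagonism in FP-expressing CHEM1 cells loaded with Fluo-8. Compound preincubated 10 min at 37° C, then receptor stimulated with 2 nM (final) PGF2α in calcium-free Tyrode with 2 mM CaCl2.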

Chain of FP receptor (P43088 whole entry): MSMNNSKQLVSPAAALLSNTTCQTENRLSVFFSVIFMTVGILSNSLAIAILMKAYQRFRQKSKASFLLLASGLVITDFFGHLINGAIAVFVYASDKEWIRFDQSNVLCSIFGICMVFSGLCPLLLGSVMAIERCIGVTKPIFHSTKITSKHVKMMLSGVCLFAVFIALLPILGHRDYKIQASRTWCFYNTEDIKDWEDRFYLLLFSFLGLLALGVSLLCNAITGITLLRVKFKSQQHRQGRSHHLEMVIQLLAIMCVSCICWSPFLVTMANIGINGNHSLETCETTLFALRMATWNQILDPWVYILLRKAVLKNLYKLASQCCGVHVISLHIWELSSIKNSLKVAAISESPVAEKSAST

SMILES | IC50 [nM]
Cc1c(N2CCCC(C)C2)nc2ccc(Br)cc2c1C(=O)NCC(CCC(=O)O)c1ccccc1Cl (single isomer, unassigned; (+)) [Example 48, (+)-5-[({6-Bromo-3-methyl-2-[3-methylpiperidin-1-yl]quinolin-4-yl}carbonyl)amino]-4-(2-chlorophenyl)pentanoic acid] | 1.2
Cc1c(N2CCCCC2C)nc2ccc(Br)cc2c1C(=O)NCC(CCC(=O)O)c1ccccc1Cl (stereo not shown) [Example 108, 5-[({6-Bromo-3-methyl-2-[2-methylpiperidin-1-yl]quinolin-4-yl}carbonyl)amino]-4-(2-chlorophenyl)pentanoic acid] | 360
Cc1c(N2CCCC2C)nc2ccc(Br)cc2c1C(=O)NCC(CCC(=O)O)c1ccccc1Cl (stereo not shown) [Example 79, 5-[({6-Bromo-3-methyl-2-[2-methylpyrrolidin-1-yl]quinolin-4-yl}carbonyl)amino]-4-(2-chlorophenyl)pentanoic acid] | 7.8
Cc1c(N2CCCC(C)C2)nc2ccc(Br)cc2c1C(=O)NCC(CCC(=O)O)c1ccccc1OC(F)(F)F (single isomer, unassigned; (+)) [Example 211, (+)-5-[({6-Bromo-3-methyl-2-[3-methylpiperidin-1-yl]quinolin-4-yl}carbonyl)amino]-4-[2-(trifluoromethoxy)phenyl]pentanoic acid] | 17
Cc1c(N2CCCCC2)nc2ccc(Br)cc2c1C(=O)NCC(CCC(=O)O)c1cccc(F)c1Cl (single isomer, unassigned; (-)) [Example 142, (−)-5-({[6-Bromo-3-methyl-2-(piperidin-1-yl)quinolin-4-yl]carbonyl}amino)-4-(2-chloro-3-fluorophenyl)pentanoic acid] | 4.3
Cc1c(N2CCCCC2)nc2ccc(Br)cc2c1C(=O)NCC(CCC(=O)O)c1ccccc1C(F)(F)F (single isomer, unassigned; (-)) [Example 112, (−)-5-({[6-Bromo-3-methyl-2-(piperidin-1-yl)quinolin-4-yl]carbonyl}amino)-4-[2-(trifluoromethyl)phenyl]pentanoic acid] | 3
Cc1c(N2CCOCC2)nc2ccc(Br)cc2c1C(=O)NCC(CCC(=O)O)c1cc(F)ccc1Cl (racemic) [Example 9, (+/−)-5-({[6-Bromo-3-methyl-2-(morpholin-4-yl)quinolin-4-yl]carbonyl}amino)-4-(2-chloro-5-fluorophenyl)pentanoic acid] | 290
Cc1c(N2CCCC(F)(F)C2)nc2ccc(Br)cc2c1C(=O)NCC(CCC(=O)O)c1cc(F)ccc1F (racemic) [Example 261, (+/−)-5-({[6-Bromo-2-(3,3-difluoropiperidin-1-yl)-3-methylquinolin-4-yl]carbonyl}amino)-4-(2,5-difluorophenyl)pentanoic acid] | 28
Cc1c(N2CCCC2)nc2ccc(Br)cc2c1C(=O)NCC(CCC(=O)O)c1ccccc1OC(F)(F)F (single isomer, unassigned; (-)) [Example 130, (−)-5-({[6-Bromo-3-methyl-2-(pyrrolidin-1-yl)quinolin-4-yl]carbonyl}amino)-4-[2-(trifluoromethoxy)phenyl]pentanoic acid] | 2.6
Cc1c(N2CCSCC2)nc2ccc(Br)cc2c1C(=O)NCC(CCC(=O)O)c1ccccc1Cl (racemic) [Example 25, (+/−)-5-({[6-Bromo-3-methyl-2-(thiomorpholin-4-yl)quinolin-4-yl]carbonyl}amino)-4-(2-chlorophenyl)pentanoic acid] | 22
Cc1c(N2CCCC(F)C2)nc2ccc(Br)cc2c1C(=O)NCC(CCC(=O)O)c1ccccc1Cl (single isomer, unassigned; (-)) [Example 186, (−)-5-[({6-Bromo-2-[3-fluoropiperidin-1-yl]-3-methylquinolin-4-yl}carbonyl)amino]-4-(2-chlorophenyl)pentanoic acid] | 8.6
Cc1c(N2CC(F)(F)C2)nc2ccc(Br)cc2c1C(=O)NCC(CCC(=O)O)c1ccccc1Cl (racemic) [Example 75, (+/−)-5-({[6-Bromo-2-(3,3-difluoroazetidin-1-yl)-3-methylquinolin-4-yl]carbonyl}amino)-4-(2-chlorophenyl)pentanoic acid] | 120
Cc1c(N2CCCC2)nc2ccc(Br)cc2c1C(=O)NCC(CCC(=O)O)c1cc(F)ccc1F (racemic) [Example 258, (+/−)-5-({[6-Bromo-3-methyl-2-(pyrrolidin-1-yl)quinolin-4-yl]carbonyl}amino)-4-(2,5-difluorophenyl)pentanoic acid] | 80
Cc1c(N2CCC(C)CC2)nc2ccc(Br)cc2c1C(=O)NCC(CCC(=O)O)c1cc(F)ccc1Cl (racemic) [Example 18, (+/−)-5-({[6-Bromo-3-methyl-2-(4-methylpiperidin-1-yl)quinolin-4-yl]carbonyl}amino)-4-(2-chloro-5-fluorophenyl)pentanoic acid] | 80
Cc1c(N2CCCC(C)(C)C2)nc2ccc(Br)cc2c1C(=O)NCC(CCC(=O)O)c1ccccc1Cl (single isomer, unassigned; (+)) [Example 44, (+)-5-({[6-Bromo-2-(3,3-dimethylpiperidin-1-yl)-3-methylquinolin-4-yl]carbonyl}amino)-4-(2-chlorophenyl)pentanoic acid] | 120
Cc1ccc(F)cc1C(CCC(=O)O)CNC(=O)c1c(C)c(N2CCCC(F)(F)C2)nc2ccc(Br)cc12 (single isomer, unassigned; (+)) [Example 214, (+)-5-({[6-Bromo-2-(3,3-difluoropiperidin-1-yl)-3-methylquinolin-4-yl]carbonyl}amino)-4-(5-fluoro-2-methylphenyl)pentanoic acid] | 21
Cc1c(N2CCC(O)C2)nc2ccc(Br)cc2c1C(=O)NCC(CCC(=O)O)c1cc(F)ccc1Cl (stereo not shown) [Example 16, 5-[({6-Bromo-2-[3-hydroxypyrrolidin-1-yl]-3-methylquinolin-4-yl}carbonyl)amino]-4-(2-chloro-5-fluorophenyl)pentanoic acid] | 290
Cc1c(N2CCCC2)nc2ccc(Br)cc2c1C(=O)NCC(CCC(=O)O)c1c(F)ccc(F)c1Cl (single isomer, unassigned; (-)) [Example 216, (−)-5-({[6-Bromo-3-methyl-2-(pyrrolidin-1-yl)quinolin-4-yl]carbonyl}amino)-4-(2-chloro-3,6-difluorophenyl)pentanoic acid] | 2.9
Cc1c(N2CCCCC2)nc2ccc(Br)cc2c1C(=O)NCC(CCC(=O)O)c1ccccc1OC(F)(F)F (single isomer, unassigned; (-)) [Example 127, (−)-5-({[6-Bromo-3-methyl-2-(piperidin-1-yl)quinolin-4-yl]carbonyl}amino)-4-[2-(trifluoromethoxy)phenyl]pentanoic acid] | 0.79
CCC1CCCN(c2nc3ccc(Br)cc3c(C(=O)NCC(CCC(=O)O)c3cc(F)ccc3F)c2C)C1 (racemic) [Example 225, 5-[({6-Bromo-2-[3-ethylpiperidin-1-yl]-3-methylquinolin-4-yl}carbonyl)amino]-4-(2,5-difluorophenyl)pentanoic acid] | 3.2
Cc1c(N2CCCC(C)C2)nc2ccc(Br)cc2c1C(=O)NCC(CCC(=O)O)c1ccccc1OC(F)(F)F (single isomer, unassigned; (-)) [Example 210, (−)-5-[({6-Bromo-3-methyl-2-[3-methylpiperidin-1-yl]quinolin-4-yl}carbonyl)amino]-4-[2-(trifluoromethoxy)phenyl]pentanoic acid] | 0.68
Cc1ccccc1C(CCC(=O)O)CNC(=O)c1c(C)c(N2CCCC(F)(F)C2)nc2ccc(Br)cc12 (single isomer, unassigned; (-)) [Example 230, (−)-5-({[6-Bromo-2-(3,3-difluoropiperidin-1-yl)-3-methylquinolin-4-yl]carbonyl}amino)-4-(2-methylphenyl)pentanoic acid] | 12
Cc1c(N2CCCC(C(N)=O)C2)nc2ccc(Br)cc2c1C(=O)NCC(CCC(=O)O)c1ccccc1Cl (stereo not shown) [Example 85, 5-[({6-Bromo-2-[3-carbamoylpiperidin-1-yl]-3-methylquinolin-4-yl}carbonyl)amino]-4-(2-chlorophenyl)pentanoic acid] | 590
Cc1c(N2CCCC(F)(F)C2)nc2ccc(Br)cc2c1C(=O)NCC(CCC(=O)O)c1c(Cl)cccc1Cl (single isomer, unassigned; (-)) [Example 265, (−)-5-({[6-Bromo-2-(3,3-difluoropiperidin-1-yl)-3-methylquinolin-4-yl]carbonyl}amino)-4-(2,6-dichlorophenyl)pentanoic acid] | 13
Cc1c(NC2CCCC2)nc2ccc(Br)cc2c1C(=O)NCC(CCC(=O)O)c1ccccc1Cl (racemic) [Example 103, (+/−)-5-({[6-Bromo-2-(cyclopentylamino)-3-methylquinolin-4-yl]carbonyl}amino)-4-(2-chlorophenyl)pentanoic acid] | 340
CCC1CCCN(c2nc3ccc(Br)cc3c(C(=O)NCC(CCC(=O)O)c3ccccc3Cl)c2C)C1 (single isomer, unassigned; (+)) [Example 61, (+)-5-[({6-Bromo-2-[3-ethylpiperidin-1-yl]-3-methylquinolin-4-yl}carbonyl)amino]-4-(2-chlorophenyl)pentanoic acid] | 0.83
Cc1c(N2CCCCC2)nc2ccc(Br)cc2c1C(=O)NCC(CCC(=O)O)c1c(Cl)ccc(Cl)c1Cl (single isomer, unassigned; (+)) [Example 172, (+)-5-({[6-Bromo-3-methyl-2-(piperidin-1-yl)quinolin-4-yl]carbonyl}amino)-4-(2,3,6-trichlorophenyl)pentanoic acid] | 41
CCC1CCCN(c2nc3ccc(Br)cc3c(C(=O)NCC(CCC(=O)O)c3ccccc3Cl)c2C)C1 (single isomer, unassigned; (+)) [Example 58, (+)-5-[({6-Bromo-2-[3-ethylpiperidin-1-yl]-3-methylquinolin-4-yl}carbonyl)amino]-4-(2-chlorophenyl)pentanoic acid] | 0.52
